One test deals with T1, human TLR7 (Homo sapiens, UniProt Q9NYK1).
T1 construct: host or cells: HEK-Blue TLR7 cells (engineered human embryonic kidney cells)
T1 sequence (Q9NYK1 27-1049): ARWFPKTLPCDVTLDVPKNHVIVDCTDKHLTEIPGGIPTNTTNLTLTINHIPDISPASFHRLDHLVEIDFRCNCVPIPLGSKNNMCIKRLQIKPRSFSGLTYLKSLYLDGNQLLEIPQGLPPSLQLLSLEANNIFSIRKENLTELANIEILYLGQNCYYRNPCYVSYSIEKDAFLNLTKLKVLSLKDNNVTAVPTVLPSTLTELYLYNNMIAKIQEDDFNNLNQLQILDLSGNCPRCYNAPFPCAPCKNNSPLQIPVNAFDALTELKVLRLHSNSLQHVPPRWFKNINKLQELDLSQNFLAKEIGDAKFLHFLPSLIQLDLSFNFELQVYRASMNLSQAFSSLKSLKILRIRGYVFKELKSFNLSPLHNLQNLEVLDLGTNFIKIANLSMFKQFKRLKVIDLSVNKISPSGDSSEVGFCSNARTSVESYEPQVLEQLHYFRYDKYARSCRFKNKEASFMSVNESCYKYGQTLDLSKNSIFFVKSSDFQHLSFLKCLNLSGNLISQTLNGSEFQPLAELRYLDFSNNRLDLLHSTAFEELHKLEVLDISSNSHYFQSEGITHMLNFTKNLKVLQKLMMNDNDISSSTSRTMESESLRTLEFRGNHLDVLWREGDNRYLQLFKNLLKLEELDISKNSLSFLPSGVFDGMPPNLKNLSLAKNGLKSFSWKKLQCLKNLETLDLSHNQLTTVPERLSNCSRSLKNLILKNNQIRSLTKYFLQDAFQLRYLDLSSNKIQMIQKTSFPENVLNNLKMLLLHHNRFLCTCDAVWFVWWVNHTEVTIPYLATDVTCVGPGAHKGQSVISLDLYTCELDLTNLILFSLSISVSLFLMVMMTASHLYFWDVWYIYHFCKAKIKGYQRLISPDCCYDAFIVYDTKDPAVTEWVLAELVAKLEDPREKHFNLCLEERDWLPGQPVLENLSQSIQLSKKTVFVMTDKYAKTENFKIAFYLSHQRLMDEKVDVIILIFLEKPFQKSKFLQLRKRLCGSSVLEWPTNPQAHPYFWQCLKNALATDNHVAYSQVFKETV
Put plainly: Human TLR7 agonist activity (hTLR7 reporter) assay in HEK-Blue TLR7 cells, SEAP readout. It counts as cell-based. Conditions: 18 h treatment, average where assay repeated. The method, boiled down: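 HEK-Blue TLR7 cells (15,000/well) treated with compound for 18 h at 37 °C, 5% CO2. Secreted SEAP measured with Quanti-Blue, 30 min, OD 620 nm. EC50 taken as concentration giving half-maximal response between baseline and maximum.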

Test [1] has as its system CD69 in human whole blood. The test can be described thus: Induction of CD69 in human whole blood (hWB). It counts as cell-based. Conditions: heparinized human whole blood, 17 h, CD69 surface staining; 100% set to 1 uM resiquimod; average where assay repeated. Put shortly: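 hWB stimulated with compound at 1 uM final (1 mM stock), 37° C o/n (17 hrs). Surface CD69-PE staining with CD14/CD19 gating, fix/lysis, then flow cytometry read. IC50 curves with 100% set to 1 uM resiquimod.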

`COc1cc(C(=O)N2C[C@H]3CNC[C@H]3C2)ccc1Cn1ncc2nc(N)nc(NCC3CC4(CCC4)C3)c21` [Compound 182]: the EC50 at human TLR7 worked out at 394 nM; in test [1], 202 nM.
Take `COc1cc(CN2CC3(CNC3)C2)ccc1Cn1ncc2nc(N)nc(NCC3CC4(CCC4)C3)c21` [Compound 155]: the values for the EC50 (at human TLR7; in test [1]) were 583 nM and 552 nM, respectively.
For the compound `CCC[C@@H](CCO)Nc1nc(N)nc2cnn(Cc3ccc(CN4CC5(CN(C)C5)C4)cc3OC)c12` [Compound 215], the EC50 on human TLR7 was found to be 372 nM; in test [1], 104 nM.
In the case of `CCC[C@@H](CCO)Nc1nc(N)nc2cnn(Cc3ccc(C(=O)N4CC5(C4)CN(C(C)C)C5)cc3OC)c12` [Compound 232], the EC50 on human TLR7 is 37.1 nM; in test [1] it was 32.9 nM.
Consider `CN1CCC(NC(=O)c2ccc(Cn3ncc4nc(N)nc(NCC5CC6(CC6)C5)c43)c(OC(F)F)c2)CC1` [Compound 220], for which the results for the EC50 (at human TLR7; in test [1]) were 1240 nM and 117 nM, respectively.
Regarding `COc1cc(CN2C[C@@H]3C[C@H]2CN3)ccc1Cn1ncc2nc(N)nc(NCC3CC4(C3)CC4(F)F)c21` (stereo partly drawn) [Compound 141], the EC50 came out at 266 nM at human TLR7 and 244 nM in test [1].
In the case of `COc1cc(CN2CC3(C2)CS(=O)(=O)C3)ccc1Cn1ncc2nc(N)nc(NCc3noc(C)n3)c21` [Compound 254], the EC50 on human TLR7 is 244 nM; in test [1] it was 18.7 nM.
Taken in the same sequence, the figures for `CCCCNc1nc(N)nc2cnn(Cc3ccc(CN4CCC5(CCN(CCO)C5)C4)cc3OC)c12` (stereo not drawn) [Compound 267] were 58.5 nM and 1.3 nM.
In the case of `COc1cc(C(=O)N2C[C@@H]3CN(S(C)(=O)=O)C[C@@H]3C2)ccc1Cn1ncc2nc(N)nc(NCC3CC4(CC4)C3)c21` [Compound 240], the EC50 at human TLR7 is 291 nM; in test [1], 845 nM.
As to `COc1cc(C(=O)N2C[C@H]3CN(C)C[C@H]3C2)ccc1Cn1ncc2nc(N)nc(NCC3CC4(CC4)C3)c21` [Compound 176], the results for the EC50 (on human TLR7; in test [1]) were 10.8 nM and 3.6 nM, respectively.
With `CN1C[C@H]2C[C@@H]1CN2C(=O)c1ccc(Cn2ncc3nc(N)nc(NCC4CC5(CC5)C4)c32)c(OC(F)F)c1` [Compound 219], the figures for the EC50 (at human TLR7; in test [1]) were 188 nM and 37.7 nM, respectively.
Consider `CCCCNc1nc(N)nc2cnn(Cc3ccc(CN4CC5(CCNCC5)C4)cc3OC)c12` [Compound 256], for which the EC50 at human TLR7 is 267 nM; in test [1] it was 10.7 nM.
Taken in the same sequence, the figures for `CCC[C@@H](CCO)Nc1nc(N)nc2cnn(Cc3ccc(CN4CC5(C4)CN(C(=O)C4CCC4)C5)cc3OC)c12` [Compound 106] were 11.6 nM and 24.9 nM.
`COc1cc(CN2CC3(CC(O)C3)C2)ccc1Cn1ncc2nc(N)nc(NCC3CC4(CCC4)C3)c21` (stereo not drawn) [Compound 158]: the EC50 at human TLR7 was 38 nM; in test [1] it was 39.1 nM.
As for `COc1cc(CN2C[C@H]3CNC[C@H]3C2)ccc1Cn1ncc2nc(N)nc(NCC3CC4(CC4)C3)c21` [Compound 169], the EC50 on human TLR7 is 28 nM; in test [1], 4.5 nM.
Consider `CN1C[C@@H]2CN(C(=O)c3ccc(Cn4ncc5nc(N)nc(NCC6CC7(CC7)C6)c54)c(OC(F)F)c3)C[C@@H]2C1` [Compound 218], for which the EC50 came out at 125 nM on human TLR7 and 35 nM in test [1].
With `COc1cc(C(=O)NC2CCN(CC(=O)N(C)C)CC2)ccc1Cn1ncc2nc(N)nc(NCC3CC4(CC4)C3)c21` [Compound 230], the EC50 was found to be 276 nM on human TLR7 and 197 nM in test [1].
In the case of `COc1cc(CN2CC3(C2)CS(=O)(=O)C3)ccc1Cn1ncc2nc(N)nc(NCC3CC4(C3)CC4(F)F)c21` (stereo not drawn) [Compound 139], the EC50 at human TLR7 stood at 382 nM; in test [1], 464 nM.
Regarding `COc1cc(C(=O)N2C[C@H]3C[C@@H]2CN3C)ccc1Cn1ncc2nc(N)nc(NCC3CC4(C3)CC(F)(F)C4)c21` [Compound 189], the concentration for a half-maximal effect (EC50) turned out to be 780 nM on human TLR7 and 1000 nM in test [1].
`CCC[C@@H](CCO)Nc1nc(N)nc2cnn(Cc3ccc(CN4CC5(C4)CN(C(C)=O)C5)cc3OC)c12` [Compound 101]: the values for the EC50 (on human TLR7; in test [1]) were 32.4 nM and 4.5 nM, respectively.
Taken in the same sequence, the figures for `COc1cc(C(=O)N2C[C@H]3CNC[C@H]3C2)ccc1Cn1ncc2nc(N)nc(NCC3CC4(CC4)C3)c21` [Compound 175] were 96.5 nM and 48.8 nM.
Taken in the same sequence, the figures for `COc1cc(C(=O)N2CCN(CC(C)(C)O)CC2)ccc1Cn1ncc2nc(N)nc(NCC3CC4(CC4)C3)c21` [Compound 239] were 39 nM and 110 nM.
Consider `COc1cc(C(=O)N2CC3(CN(C)C3)C2)ccc1Cn1ncc2nc(N)nc(NCc3noc(C)n3)c21` [Compound 247], for which the figures for the EC50 (on human TLR7; in test [1]) were 197 nM and 37.1 nM, respectively.
Take `CCCCNc1nc(N)nc2cnn(Cc3ccc(CN4CCC5(CC4)CNC5)cc3OC)c12` [Compound 255]: the EC50 on human TLR7 came out at 175 nM; in test [1], 5.7 nM.
Take `CCCCNc1nc(N)nc2cnn(Cc3ccc(CN4CC5(CCNC5)C4)cc3OC)c12` [Compound 257]: the values for the EC50 (on human TLR7; in test [1]) were 198 nM and 4.8 nM, respectively.
As for `COc1cc(C(=O)N2CC3(CN(C)C3)C2)ccc1Cn1ncc2nc(N)nc(NCC3CC4(CC4)C3)c21` [Compound 173], the EC50 on human TLR7 came out at 20.9 nM; in test [1], 5.4 nM.
For `COc1cc(C(=O)NC2CCN(C)CC2)ccc1Cn1nc(C)c2nc(N)nc(NCC3CC4(CC4)C3)c21` [Compound 207], in that order: 325 nM and 93.3 nM.
For `COc1cc(C(=O)N2CCS(=O)(=O)CC2)ccc1Cn1ncc2nc(N)nc(NCC3CC4(CC4)C3)c21` [Compound 227], in that order: 507 nM and 125 nM.
As to `COc1cc(CN2C[C@H]3CNC[C@H]3C2)ccc1Cn1ncc2nc(N)nc(NCC3CC4(CCC4)C3)c21` [Compound 157], the EC50 at human TLR7 was 65.7 nM; in test [1], 364 nM.
Taken in the same sequence, the figures for `COc1cc(CN2C[C@H]3COC[C@H]3C2)ccc1Cn1ncc2nc(N)nc(NCC3CC4(C3)CC4F)c21` (stereo partly drawn) [Compound 119] were 144 nM and 258 nM.

These data come from patent publication US20230122249A1, “1H-PYRAZOLO[4,3-d]PYRIMIDINE COMPOUNDS AS TOLL-LIKE RECEPTOR 7 (TLR7) AGONISTS” (BRISTOL-MYERS SQUIBB COMPANY, priority 2020, published 2023).
